Data as given in paper PMC11872507, “Lasso peptides sviceucin and siamycin I exhibit anti-virulence activity and restore vancomycin effectiveness in vancomycin-resistant pathogens” (iScience, 2025).
Values after ≈ are worked out from the molar mass of the structure shown.

How the values were obtained:
S. aureus 16038 (VISA) = experiment: microbe, parasite or virus in culture; format: cell-based, Staphylococcus aureus; details: Staphylococcus aureus, VISA, read-out: Vancomycin MIC
Procedure: (§2) The MIC of vancomycin was determined by the microdilution method described in the guidelines of the European Committee on Antimicrobial Susceptibility Testing (EUCAST 2024, v14.0 Breakpoint Tables).[58] For enterococci, GM17 medium was used instead of CAMH medium since enterococci cannot degrade starch, the main carbohydrate of MH medium. 2-fold serial dilutions of the tested antibiotic were performed to obtain concentrations ranging from 0.5 to 512 μg/mL. LP were then added to the wells at the desired concentration. The medium was inoculated with a final inoculum of 5 × 10^5 CFU/mL. The MIC is the lowest concentration that prevents visible in vitro growth.

E. faecium 1 231 502 = experiment: microbe, parasite or virus in culture; format: cell-based, Enterococcus faecium; details: Enterococcus faecium, 1231502, read-out: Vancomycin MIC
Procedure: as §2

V583 vanSB^S402I = experiment: Vancomycin MIC, microdilution; format: cell-based; details: Enterococcus faecalis; vancomycin alone (control)
Procedure: as §2

vanYB in Svic1 = experiment: vanYB expression by RT-qPCR; format: cell-based, Enterococcus faecalis; details: vancomycin 1 μg/mL alone
Procedure: (§1) For gelE gene expression measurements, bacteria were cultured in GM17 medium supplemented with the 1:1 water:methanol formulation or either sviceucin at 10 μM, or siamycin I at 1 μM. Cultures were incubated at 37°C until reaching OD600 of 0.5. For vanY gene expression measurements, bacteria were cultured in GM17 medium supplemented with either vancomycin at 1 μg/mL or sviceucin at 10 μM and vancomycin at 1 μg/mL at 37°C to induce the expression of van genes until reaching OD600 of 0.5. Bacteria were recovered by centrifugation at 4200 RCF for 2 min. Once the supernatant was discarded, the pellets were stored at −80°C. Pellets were resuspended in TE buffer or ML lysis buffer, depending on kit used, and transferred in Lysis Matrix B Tubes (MP Biomedicals, USA) before cell lysis with a FastPrep-24 5G (2 × 40 s at 6 m/s, 5 min on ice in-between cycles) (MP Biomedicals, USA). After bead-beating lysis, RNA extraction was performed using Direct-Zol RNA Miniprep kit (Zymo Research, USA) for gelE gene expression measurements or NucleoSpin^Ⓡ miRNA Miniprep kit (Macherey-Nagel, Germany) for vanY gene expression measurements, according to the manufacturers’ instructions. Retrotranscription was performed using QuantiTect Reverse transcription (QIAGEN, Germany). qPCR on cDNA was performed with GoTaq qPCR (Promega, USA). […] Data were analyzed with CFX Manager software (Biorad, USA).

[1] = system: vanYB in E. faecalis V583; experiment: vanYB expression by RT-qPCR; format: cell-based, Enterococcus faecalis; details: vancomycin 1 μg/mL alone
Procedure: as §1

SMILES: CN[C@H](CC(C)C)C(=O)N[C@H]1C(=O)N[C@@H](CC(N)=O)C(=O)N[C@H]2C(=O)N[C@H]3C(=O)N[C@H](C(=O)N[C@H](C(=O)O)c4cc(O)cc(O)c4-c4cc3ccc4O)[C@H](O)c3ccc(c(Cl)c3)Oc3cc2cc(c3O[C@@H]2O[C@H](CO)[C@@H](O)[C@H](O)[C@H]2O[C@H]2C[C@](C)(N)[C@H](O)[C@H](C)O2)Oc2ccc(cc2Cl)[C@H]1O [Vancomycin]
- MIC (S. aureus 16038 (VISA)): 4 µg/mL (≈ 2.76 µM)
- MIC (E. faecium 1 231 502): 128 µg/mL (≈ 88.3 µM)
- MIC (V583 vanSB^S402I): 128 µg/mL (≈ 88.3 µM)
- vanYB expression induced by vancomycin, in words (vanYB in Svic1): strongly induced
- vanYB expression induced by vancomycin, in words [1]: strongly induced
